Measured values as given in patent US20260242395A1, “AMINOHETEROARYL KINASE INHIBITORS” (ALLORION THERAPEUTICS INC, priority 2022, published 2026).
pIC50: −log10 of the molar value.

Columns and labels:
Assay type in all cases: biochemical
CDK2/CyclinE1 = target: T1, CDK2/CyclinE1 (Homo sapiens, UniProt P24941); assay: CDK2/CyclinE1 kinase inhibitory activity (Caliper mobility shift); conditions: enzyme 3 nM, ATP 77 μM, 28° C. 30 min; read-out: CDK2/Cyclin E1 IC50
T1 construct: purchased Carna 04-165
Protocol: CDK2/CyclinE1 kinase inhibitory activity (IC50): 5 μl of various dilutions of test compounds in 1×kinase buffer (50 mM HEPES pH 7.5, 10 mM MgCl2, 2 mM DTT and […] Brij-35) were mixed with 10 μL of CDK2/CyclinE1 (Carna, 04-165 #, final concentration 3 nM in 1×Kinase buffer) in 384 plates and incubated at room temperature for 10 min. To initiate each reaction, 10 μL of peptide solution containing fluorescently-labeled-peptide 18(5-FAM-QSPKKG-CONH2) (GL, 114202 #, final concentration 3000 nM) and ATP (final concentration 77 μM) in 1×Kinase buffer was added to each of the wells containing test compound and CDK2/CyclinE1 mixture. The reaction was then allowed to proceed at 28° C. for 30 min and terminated by the addition of 25 μL stop buffer (100 mM HEPES pH 7.5, 50 mM EDTA, 0.2% Coating Reagent #3 (Perkin Elmer, 760050 #) and 0.015% Brij-35).
Following the kinase reaction, Caliper EZ reader II (Downstream voltages: −500V, Upstream voltages: −2250V, Base pressure −0.5 PSI, Screen pressure −1.2 PSI) was used to separate the phosphorylated (product) and the unphosphorylated (substrate) fluorescently-labeled peptide 18 based on their different mobility. Both substrate and product were measured and the ratio of these values were used to generate % conversion by Caliper EZ reader II. These conversion values were then transformed into % inhibition of kinase activity using the formula: % Inhibition=[(MA−X)/(MA−MI)]×100% where MA=conversion value of DMSO only controls, MI=conversion value of no enzyme controls and X=conversion value at any given compound dose. IC50 values were then calculated by plotting dose-response curves and then using the XLfit application in Excel software.

CDK4/CyclinD1 = target: T2, CDK4/CyclinD1 (Homo sapiens, UniProt P11802); assay: CDK4/CyclinD1 kinase inhibitory activity (Caliper mobility shift); conditions: enzyme 20 nM, ATP 672 uM, 28° C. 30 min; read-out: CDK4/Cyclin D1 IC50
T2 construct: purchased ProQinase 0142-0143-1
How it was run: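 Recombinant CDK4/Cyclin D1 (20 nM final) preincubated 10 min at room temperature with compound in HEPES pH 7.5 buffer with MgCl2, DTT and Triton X-100. Reaction started with 3000 nM FAM-labelled peptide and 672 uM ATP, run 30 min at 28° C, stopped with EDTA. Mobility-shift % conversion gave % inhibition, and IC50 came from dose-response fits.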

CDK6/CyclinD3 = target: T3, CDK6/CyclinD3 (Homo sapiens, UniProt Q00534); assay: CDK6/CyclinD3 kinase inhibitory activity (Caliper mobility shift); conditions: enzyme 15 nM, ATP 800 μM, 28° C. 30 min; read-out: CDK6/Cyclin D3 IC50
T3 construct: purchased Carna 04-107
How it was run: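 Compound preincubated 10 min at room temperature with CDK6/CyclinD3 (15 nM final) in HEPES pH 7.5/MgCl2/DTT buffer; reaction with 5-FAM peptide (3000 nM) and ATP 800 μM, 30 min at 28°C, stopped with EDTA. Substrate/product separated by microfluidic mobility shift; % conversion converted to % inhibition, IC50 from dose-response curves.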

T3 sequence (Q00534 whole entry): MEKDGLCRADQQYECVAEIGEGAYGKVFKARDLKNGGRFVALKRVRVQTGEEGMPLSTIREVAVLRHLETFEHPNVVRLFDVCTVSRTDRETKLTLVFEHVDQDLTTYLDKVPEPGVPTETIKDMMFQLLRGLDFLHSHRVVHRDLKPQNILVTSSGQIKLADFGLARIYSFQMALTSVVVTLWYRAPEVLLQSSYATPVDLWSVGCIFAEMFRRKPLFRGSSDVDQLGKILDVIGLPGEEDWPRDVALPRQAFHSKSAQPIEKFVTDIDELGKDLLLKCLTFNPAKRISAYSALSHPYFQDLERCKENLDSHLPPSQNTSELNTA
T3 sequence (P30281 whole entry partner): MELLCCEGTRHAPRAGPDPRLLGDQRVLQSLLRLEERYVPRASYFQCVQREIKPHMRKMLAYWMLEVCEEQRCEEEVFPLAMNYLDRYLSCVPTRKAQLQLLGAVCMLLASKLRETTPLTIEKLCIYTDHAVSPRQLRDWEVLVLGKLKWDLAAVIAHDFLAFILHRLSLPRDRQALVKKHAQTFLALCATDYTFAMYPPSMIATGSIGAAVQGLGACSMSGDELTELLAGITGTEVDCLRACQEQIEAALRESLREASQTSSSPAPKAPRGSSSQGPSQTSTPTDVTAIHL
T2 sequence (P11802 whole entry): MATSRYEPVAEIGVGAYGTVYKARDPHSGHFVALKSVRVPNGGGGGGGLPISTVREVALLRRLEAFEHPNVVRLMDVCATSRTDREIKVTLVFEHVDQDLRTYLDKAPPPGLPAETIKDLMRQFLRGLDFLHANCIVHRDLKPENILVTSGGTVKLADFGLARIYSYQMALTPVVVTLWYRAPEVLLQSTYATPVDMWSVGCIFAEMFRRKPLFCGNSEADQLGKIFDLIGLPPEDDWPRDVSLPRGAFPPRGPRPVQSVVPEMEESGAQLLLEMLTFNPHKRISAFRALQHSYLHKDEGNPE
T2 sequence (P24385 whole entry partner): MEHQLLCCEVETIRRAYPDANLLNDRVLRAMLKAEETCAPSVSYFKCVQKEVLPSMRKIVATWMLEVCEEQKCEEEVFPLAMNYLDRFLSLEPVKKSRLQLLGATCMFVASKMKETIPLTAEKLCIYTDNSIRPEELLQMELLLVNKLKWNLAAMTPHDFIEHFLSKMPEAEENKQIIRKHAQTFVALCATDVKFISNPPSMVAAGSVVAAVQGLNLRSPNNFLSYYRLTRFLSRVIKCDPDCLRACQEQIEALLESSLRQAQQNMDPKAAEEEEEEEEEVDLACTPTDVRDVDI

SMILES | pIC50 (CDK2/CyclinE1) | pIC50 (CDK4/CyclinD1) | pIC50 (CDK6/CyclinD3)
Cc1c(C(C)(C)O)cnc2c(F)cc(-c3nc(N[C@@H]4CCOC[C@H]4O)ncc3Cl)cc12 [Example 7, (3S,4R)-4-((5-chloro-4-(8-fluoro-3-(2-hydroxypropan-2-yl)-4-methylquinolin-6-yl)pyrimidin-2-yl)amino)tetrahydro-2H-pyran-3-ol] | 6.00 to 7.00 | > 8.00 | 7.00 to 8.00
CC1(C)Cc2cnc3c(F)cc(-c4nc(N[C@@H]5CCOC[C@H]5O)ncc4F)cc3c2CN1 [Example 24, (3S,4R)-4-((5-fluoro-4-(7-fluoro-3,3-dimethyl-1,2,3,4-tetrahydrobenzo[c][2,6]naphthyridin-9-yl)pyrimidin-2-yl)amino)tetrahydro-2H-pyran-3-ol] | 7.00 to 8.00 | > 8.00 | 7.00 to 8.00
O[C@@H]1COCC[C@H]1Nc1cc(-c2cc(F)c3ncc4c(c3c2)CNCC4)c(Cl)cn1 [Example 25] | 7.00 to 8.00 | > 8.00 | 7.00 to 8.00
CC1(C)Cc2cnc3c(F)cc(-c4ccnc(N[C@@H]5CCOC[C@H]5O)n4)cc3c2CN1 [Example 107] | 6.00 to 7.00 | > 8.00 | 6.00 to 7.00
CC(C)(N)c1cnc2c(F)cc(-c3nc(N[C@@H]4CCOC[C@H]4O)ncc3Cl)cc2c1 [Example 14, (3S,4R)-4-((4-(3-(2-aminopropan-2-yl)-8-fluoroquinolin-6-yl)-5-chloropyrimidin-2-yl)amino)tetrahydro-2H-pyran-3-ol] | 7.00 to 8.00 | > 8.00 | 6.00 to 7.00
O[C@@H]1COCC[C@H]1Nc1ncc(Cl)c(-c2cc(F)c3c(c2)N2CCNC[C@@H]2CO3)n1 [Example 19, (3S,4R)-4-((5-chloro-4-((R)-7-fluoro-1,2,3,4,4a,5-hexahydrobenzo[b]pyrazino[1,2-d][1,4]oxazin-9-yl)pyrimidin-2-yl)amino)tetrahydro-2H-pyran-3-ol] | 7.00 to 8.00 | > 8.00 | 7.00 to 8.00
O[C@@H]1COCC[C@H]1Nc1ncc(Cl)c(-c2cc(F)c3ncc4c(c3c2)CNC2(CC2)C4)n1 [Example 21, (3S,4R)-4-((5-chloro-4-(7-fluoro-1,4-dihydro-2H-spiro[benzo[c][2,6]naphthyridine-3,1′-cyclopropan]-9-yl)pyrimidin-2-yl)amino)tetrahydro-2H-pyran-3-ol] | 6.00 to 7.00 | > 8.00 | 6.00 to 7.00
O[C@@H]1COCC[C@H]1Nc1ncc(Cl)c(-c2cc(F)c3ncc4c(c3c2)CCNC4)n1 [Example 8, (3S,4R)-4-((5-chloro-4-(7-fluoro-1,2,3,4-tetrahydrobenzo[c][2,7]naphthyridin-9-yl)pyrimidin-2-yl)amino)tetrahydro-2H-pyran-3-ol] | > 8.00 | > 8.00 | 7.00 to 8.00
CC(C)(N)c1cnc2ccc(-c3nc(N[C@@H]4CCOC[C@H]4O)ncc3Cl)cc2c1 [Example 26] | 6.00 to 7.00 | 7.00 to 8.00 | ≤ 6.00
CC(C)n1c(C(C)(C)O)nc2c(F)cc(-c3cc(N[C@@H]4CCOC[C@H]4O)ncc3Cl)cc21 [Example 12, (3S,4R)-4-((5-chloro-4-(4-fluoro-2-(2-hydroxypropan-2-yl)-1-isopropyl-1H-benzo[d]imidazol-6-yl)pyridin-2-yl)amino)tetrahydro-2H-pyran-3-ol] | ≤ 6.00 | 7.00 to 8.00 | 6.00 to 7.00
CNC(C)(C)c1cnc2c(F)cc(-c3nc(N[C@@H]4CCOC[C@H]4O)ncc3Cl)cc2c1 [Example 36] | 6.00 to 7.00 | 7.00 to 8.00 | 6.00 to 7.00
[2H]C([2H])([2H])C(O)(c1cc2cc(-c3nc(N[C@@H]4CCOC[C@H]4O)ncc3Cl)cc(F)c2nc1C)C([2H])([2H])[2H] [Example 60, (3S,4R)-4-((5-chloro-4-(8-fluoro-3-(2-hydroxypropan-2-yl-1,1,1,3,3,3-d6)-2-methylquinolin-6-yl)pyrimidin-2-yl)amino)tetrahydro-2H-pyran-3-ol] | ≤ 6.00 | > 8.00 | 6.00 to 7.00
[2H]c1nc2c(F)cc(-c3nc(N[C@@H]4CCOC[C@H]4O)ncc3C)cc2c2c1CC(C)(C)NC2 [Example 102] | ≤ 6.00 | > 8.00 | 6.00 to 7.00
CC(C)(O)c1cnc2c(F)cc(-c3nc(N[C@@H]4CCOC[C@H]4O)ncc3C#N)cc2c1Cl [Example 41] | 6.00 to 7.00 | > 8.00 | 7.00 to 8.00

Next, values leading:

pIC50 (CDK2/CyclinE1) | pIC50 (CDK4/CyclinD1) | pIC50 (CDK6/CyclinD3) | SMILES
6.00 to 7.00 | > 8.00 | 6.00 to 7.00 | Cc1c(C(C)NC2CC2)cnc2c(F)cc(-c3nc(N[C@@H]4CCOC[C@H]4O)ncc3Cl)cc12 (single isomer, unassigned) [Example 91b]
6.00 to 7.00 | > 8.00 | 6.00 to 7.00 | CC(O)c1cnc2c(F)cc(-c3nc(N[C@@H]4CCOC[C@H]4O)ncc3Cl)cc2c1Cl (single isomer, unassigned) [Example 40a]
6.00 to 7.00 | > 8.00 | 6.00 to 7.00 | Cc1nc2c(F)cc(-c3nc(N[C@@H]4CCOC[C@H]4O)ncc3Cl)cc2cc1C1CCCN1 (single isomer, unassigned) [Example 57a]
6.00 to 7.00 | > 8.00 | 7.00 to 8.00 | Cc1nc2c(F)cc(-c3nc(N[C@@H]4CCOC[C@H]4O)ncc3Cl)cc2c(C)c1[C@@H](C)O (single isomer, unassigned) [Example 15a]
7.00 to 8.00 | > 8.00 | 7.00 to 8.00 | CC1Cc2cnc3c(F)cc(-c4nc(N[C@@H]5CCOC[C@H]5O)ncc4Cl)cc3c2CN1 (single isomer, unassigned) [Example 34a]
6.00 to 7.00 | > 8.00 | 7.00 to 8.00 | Cc1nc2c(F)cc(-c3nc(N[C@@H]4CCOC[C@H]4O)ncc3Cl)cc2c(C)c1[C@H](C)O (single isomer, unassigned) [Example 15b]
